Series [1] in a line: Tryptophan fluorescence emission spectra of protein:lipid complexes. Particulars: mole ratio lipid:rhG-CSF 100:1. The series is classed as physicochemical. On the procedure:
There are two tryptophan residues in rhG-CSF that are quite sensitive to local environmental conditions. Therefore, analysis was performed to determine the rhG-CSF tryptophan fluorescence when the rhG-CSF is contacted with a liposome. […] An excellent review of tryptophan fluorescence analysis is […], by J. Lakowicz, Chap 11 (Plenum Press, New York, 1983).
Tryptophan fluorescence of the G-CSF:lipid complexes (as described above) was assayed by exciting the samples at 280 nm and while scanning the emission from 285 nm to 420 nm in 1nm increments at a rate of 1 nm/sec. The sample volume was 3 ml and the final concentration of G-CSF was 0.2 mg/ml for all samples. The lipid:G-CSF ratios varied. All fluorescence measurements were carried out using a PTI Alphascan fluorometer (South Brunswick, NJ). All measurements were performed at 25°C and this temperature was maintained through the use of a water-jacketed cuvette holder connected to a circulating water bath. Emission spectra were collected and analyzed using the data software provided by PTI.
In this example, the ability of rhG-CSF to interact with other phospholipids was determined using comparisons of F/FO intensity and emission maximums as described above. In each instance, the mole ratio of lipid:rhG-CSF was 100:1.
In this example, chemically modified G-CSF (pegylated G-CSF (PEG-G-CSF)) and G-CSF obtained as a product of eucaryotic host cell expression (CHO-G-CSF) were tested for their ability to interact with negatively charged lipid vesicles. For the CHO-G-CSF, the determinations were made using comparisons of F/FO intensity and emission maximums (as described in Example 1 above). In each instance, the mole ratio of lipid:protein was 100:1. For the PEG-G-CSF, the determination was based upon circular dichroism analysis.

In series [2] the test system is murine bone marrow cells. The experiment in a line: In vitro activity: G-CSF dependent uptake of [3H]-thymidine by bone marrow cells. It is filed as cell-based. Particulars: lipid mixed with rhG-CSF, lipid:protein ratio 100:1; control untreated rhG-CSF without lipid. As to the method:
In this example, the effect of the rhG-CSF:DOPG interaction as it relates to the biological activity of rhG-CSF was determined. The in vitro activity of rhG-CSF was assayed utilizing the G-CSF dependent uptake of [^3H]-thymidine by murine bone marrow cells as described in Zsebo et al., Immunobiology 172: 175-184 (1986). All activity assays were performed in triplicate. In vivo activity was determined by subcutaneous injection of hamsters (rhG-CSF dose of 100 µg/kg) and measurements of white blood cell (WBC) count.
After heating to 85°C for 10 minutes, rhG-CSF has undetectable activity and the protein precipitates. […] B. The ability of various lipids to stabilize rhG-CSF during freeze drying was also studied. Samples of rhG-CSF in combination with various lipids were freeze dried and assayed (as described above) for activity.

Series [3] can be described thus: Circular dichroism at 222 nm, thermal stability and temperature cycling. It is filed as physicochemical. Particulars: for effect on secondary structure of rhG-CSF (circular dichroism): 150:1 lipid:rhG-CSF ratio, heated to 95°C and cooled to 10°C; for thermal stability of GM-CSF (circular dichroism): lipid:GM-CSF ratio 17:1, PBS pH 7.0, heated to 90°C and cooled to 10°C.

Consider `CCCCCCCCCCCCCC(=O)OC[C@H](COP(=O)([O-])OCC[N+](C)(C)C)OC(=O)CCCCCCCCCCCCC` [DMPC, reference compound], for which the “effect on emission maximum and fluorescence intensity of rhG-CSF” value in series [1] is “little if no effect”.
In the case of `CCCCCCCCCCCCCC(=O)OCC(COP(=O)(O)OCC(O)CO)OC(=O)CCCCCCCCCCCCC` (centres unmarked) [DMPG, dimyristoylphosphatidylglycerol], in series [2], the “retention of rhG-CSF bioactivity after freeze drying” value (“retention … after freeze drying” for short) was around 100%. Besides, the “insertion of rhG-CSF into lipid vesicles (F/FO and emission maximum)” value (from here on “insertion of rhG-CSF into lipid vesicles”) in series [1] is listed as “can insert”. In series [3], the “effect on secondary structure of rhG-CSF (circular dichroism)” value is “stabilize the secondary structure of rhG-CSF” and the “thermal stability of GM-CSF (circular dichroism)” value is on record as “recovery of secondary structure after heating”.
As for `CCCCCCCC/C=C\CCCCCCCC(=O)OC[C@H](COP(=O)([O-])OCC[N+](C)(C)C)OC(=O)CCCCCCC/C=C\CCCCCCCC` [DOPC, reference compound], the “effect on emission maximum and fluorescence intensity of rhG-CSF” value in series [1] is given as “little if no effect”.
For the compound `CCCCCCCC/C=C\CCCCCCCC(=O)OC[C@H](COP(=O)(O)OCC(O)CO)OC(=O)CCCCCCC/C=C\CCCCCCCC` (some centres unmarked) [DOPG, dioleoylphosphatidylglycerol], the “retention … after freeze drying” value in series [2] was around 100%. In addition, the “insertion of rhG-CSF into lipid vesicles” value in series [1] is on record as “can insert”.
On to `CCCCCCCCCCCCCCCC(=O)OC[C@H](COP(=O)([O-])OCC[N+](C)(C)C)OC(=O)CCCCCCCCCCCCCCC` [DPPC, reference compound], for which, in series [1], the “effect on emission maximum and fluorescence intensity of rhG-CSF” value is listed as “little if no effect”.
Consider `CCCCCCCCCCCCCCCC(=O)OCC(COP(=O)(O)OCC(O)CO)OC(=O)CCCCCCCCCCCCCCC` (centres unmarked) [DPPG, dipalmitoylphosphatidylglycerol], for which, in series [2], the “retention … after freeze drying” value is reported as around 100%. Moreover, the “insertion of rhG-CSF into lipid vesicles” value in series [1] was “can insert”. Moreover, in series [3], the “effect on secondary structure of rhG-CSF (circular dichroism)” value is listed as “stabilize the secondary structure of rhG-CSF” and the “thermal stability of GM-CSF (circular dichroism)” value is on record as “recovery of secondary structure after heating”.
Consider `CCCCCCCCC=CCCCCCCCC(=O)OCC(COP(=O)(O)OCCNC(=O)CCCC(=O)O)OC(=O)CCCCCCCC=CCCCCCCCC` (centres unmarked) [NG-DOPE], for which, in series [1], the “insertion of rhG-CSF into lipid vesicles” value is given as “improved insertion of the rhG-CSF than DOPE”.
